PubChem BioAssay (NCI)
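Step 1: Grow cells in 96-well plates. Step 2: Expose to compound for 48 hours at 5 concentrations. Step 3: Interpolate endpoints linearly; if unreached, use highest concentration. At the GI50, growth is halved. At the TGI there is no net growth.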

Legend:
Assay in all cases: inhibition of tumour cell growth, NCI panel, 48 h
ACHN renal = test system: ACHN renal
786-0 renal = test system: 786-0 renal
BT-549 breast = test system: BT-549 breast
OVCAR-3 ovarian = test system: OVCAR-3 ovarian
HT29 colon = test system: HT29 colon
SF-295 CNS = test system: SF-295 CNS
SNB-75 CNS = test system: SNB-75 CNS
SW-620 colon = test system: SW-620 colon
MALME-3M melanoma = test system: MALME-3M melanoma
U251 CNS = test system: U251 CNS
NCI/ADR-RES ovarian = test system: NCI/ADR-RES ovarian
HL-60(TB) leukemia = test system: HL-60(TB) leukemia
SR leukemia = test system: SR leukemia
M14 melanoma = test system: M14 melanoma
HCC-2998 colon = test system: HCC-2998 colon
LOX IMVI melanoma = test system: LOX IMVI melanoma
RXF 393 renal = test system: RXF 393 renal
COLO 205 colon = test system: COLO 205 colon
SF-539 CNS = test system: SF-539 CNS
SF-268 CNS = test system: SF-268 CNS
SK-MEL-5 melanoma = test system: SK-MEL-5 melanoma
UACC-62 melanoma = test system: UACC-62 melanoma
IGROV1 ovarian = test system: IGROV1 ovarian
KM12 colon = test system: KM12 colon
MDA-MB-435 = test system: MDA-MB-435
HCT-116 colon = test system: HCT-116 colon
MCF7 breast = test system: MCF7 breast
NCI-H522 lung = test system: NCI-H522 lung
DU-145 prostate = test system: DU-145 prostate
OVCAR-8 ovarian = test system: OVCAR-8 ovarian
NCI-H226 lung = test system: NCI-H226 lung
HOP-92 NSCLC = test system: HOP-92 NSCLC
SN12C renal = test system: SN12C renal
UACC-257 melanoma = test system: UACC-257 melanoma
A498 renal = test system: A498 renal
TK-10 renal = test system: TK-10 renal
NCI-H23 lung = test system: NCI-H23 lung
SNB-19 CNS = test system: SNB-19 CNS
A549 NSCLC = test system: A549 NSCLC
MDA-MB-231 breast = test system: MDA-MB-231 breast
RPMI-8226 leukemia = test system: RPMI-8226 leukemia
HOP-62 NSCLC = test system: HOP-62 NSCLC
NCI-H460 lung = test system: NCI-H460 lung
PC-3 prostate = test system: PC-3 prostate
UO-31 renal = test system: UO-31 renal
HCT-15 colon = test system: HCT-15 colon
SK-OV-3 ovarian = test system: SK-OV-3 ovarian
OVCAR-4 ovarian = test system: OVCAR-4 ovarian
HS 578T breast = test system: HS 578T breast
SK-MEL-28 melanoma = test system: SK-MEL-28 melanoma
EKVX NSCLC = test system: EKVX NSCLC
MOLT-4 leukemia = test system: MOLT-4 leukemia
CCRF-CEM leukemia = test system: CCRF-CEM leukemia
T-47D breast = test system: T-47D breast
OVCAR-5 ovarian = test system: OVCAR-5 ovarian
K-562 leukemia = test system: K-562 leukemia
SK-MEL-2 melanoma = test system: SK-MEL-2 melanoma

CN(C)CCCOc1ccc(-c2ccc3ncc4c(c3c2)n(C2CCOCC2)c(=O)n4C)cn1
GI50 (ACHN renal): 2 µM
TGI (ACHN renal): 12.6 µM
GI50 (786-0 renal): 1.74 µM
TGI (786-0 renal): 12.1 µM
GI50 (BT-549 breast): 1.32 µM
TGI (BT-549 breast): 8.99 µM
GI50 (OVCAR-3 ovarian): 1.34 µM
TGI (OVCAR-3 ovarian): 10.3 µM
GI50 (HT29 colon): 1.95 µM
TGI (HT29 colon): 13.5 µM
GI50 (SF-295 CNS): 1.29 µM
TGI (SF-295 CNS): 7.81 µM
GI50 (SNB-75 CNS): 0.396 µM
TGI (SNB-75 CNS): 6.45 µM
GI50 (SW-620 colon): 2.81 µM
TGI (SW-620 colon): 21.1 µM
GI50 (MALME-3M melanoma): 0.354 µM
TGI (MALME-3M melanoma): 3.41 µM
GI50 (U251 CNS): 4.52 µM
TGI (U251 CNS): 18.9 µM
GI50 (NCI/ADR-RES ovarian): 3.86 µM
TGI (NCI/ADR-RES ovarian): 21.9 µM
GI50 (HL-60(TB) leukemia): 2.48 µM
TGI (HL-60(TB) leukemia): 15.9 µM
GI50 (SR leukemia): 3.01 µM
TGI (SR leukemia): 15.6 µM
GI50 (M14 melanoma): 1.78 µM
TGI (M14 melanoma): 13.8 µM
GI50 (HCC-2998 colon): 2.51 µM
TGI (HCC-2998 colon): 15.6 µM
GI50 (LOX IMVI melanoma): 1.13 µM
TGI (LOX IMVI melanoma): 6.51 µM
GI50 (RXF 393 renal): 0.838 µM
TGI (RXF 393 renal): 4.85 µM
GI50 (COLO 205 colon): 0.825 µM
TGI (COLO 205 colon): 3.28 µM
GI50 (SF-539 CNS): 1.52 µM
TGI (SF-539 CNS): 6.21 µM
GI50 (SF-268 CNS): 2.04 µM
TGI (SF-268 CNS): 29.5 µM
GI50 (SK-MEL-5 melanoma): 1.48 µM
TGI (SK-MEL-5 melanoma): 7.47 µM
GI50 (UACC-62 melanoma): 2.73 µM
TGI (UACC-62 melanoma): 13.8 µM
GI50 (IGROV1 ovarian): 0.454 µM
TGI (IGROV1 ovarian): 5.6 µM
GI50 (KM12 colon): 3.16 µM
TGI (KM12 colon): 16.4 µM
GI50 (MDA-MB-435): 1.65 µM
TGI (MDA-MB-435): 11.3 µM
GI50 (HCT-116 colon): 3.12 µM
TGI (HCT-116 colon): 16.6 µM
GI50 (MCF7 breast): 0.545 µM
TGI (MCF7 breast): 14.5 µM
GI50 (NCI-H522 lung): 0.985 µM
TGI (NCI-H522 lung): 12.4 µM
GI50 (DU-145 prostate): 2.37 µM
TGI (DU-145 prostate): 17.2 µM
GI50 (OVCAR-8 ovarian): 3.24 µM
TGI (OVCAR-8 ovarian): 17.2 µM
GI50 (NCI-H226 lung): 1.73 µM
TGI (NCI-H226 lung): 15.2 µM
GI50 (HOP-92 NSCLC): 0.218 µM
TGI (HOP-92 NSCLC): 1.61 µM
GI50 (SN12C renal): 2.12 µM
TGI (SN12C renal): 20.9 µM
GI50 (UACC-257 melanoma): 1.94 µM
TGI (UACC-257 melanoma): 12.2 µM
GI50 (A498 renal): 0.559 µM
TGI (A498 renal): 3.64 µM
GI50 (TK-10 renal): 0.286 µM
TGI (TK-10 renal): 2.91 µM
GI50 (NCI-H23 lung): 2.53 µM
TGI (NCI-H23 lung): 22.1 µM
GI50 (SNB-19 CNS): 4.71 µM
TGI (SNB-19 CNS): 18.7 µM
GI50 (A549 NSCLC): 2.36 µM
TGI (A549 NSCLC): 12.3 µM
GI50 (MDA-MB-231 breast): 1.31 µM
TGI (MDA-MB-231 breast): 11.7 µM
GI50 (RPMI-8226 leukemia): 1.1 µM
TGI (RPMI-8226 leukemia): 8.63 µM
GI50 (HOP-62 NSCLC): 1.87 µM
TGI (HOP-62 NSCLC): 12.5 µM
GI50 (NCI-H460 lung): 0.94 µM
TGI (NCI-H460 lung): 15.5 µM
GI50 (PC-3 prostate): 0.861 µM
TGI (PC-3 prostate): 13.8 µM
GI50 (UO-31 renal): 0.494 µM
TGI (UO-31 renal): 5.89 µM
GI50 (HCT-15 colon): 3.08 µM
TGI (HCT-15 colon): 18 µM
GI50 (SK-OV-3 ovarian): 0.514 µM
TGI (SK-OV-3 ovarian): 4.19 µM
GI50 (OVCAR-4 ovarian): 1.34 µM
TGI (OVCAR-4 ovarian): 11.3 µM
GI50 (HS 578T breast): 0.902 µM
TGI (HS 578T breast): 10.1 µM
GI50 (SK-MEL-28 melanoma): 1.97 µM
TGI (SK-MEL-28 melanoma): 13 µM
GI50 (EKVX NSCLC): 0.975 µM
TGI (EKVX NSCLC): 12.2 µM
GI50 (MOLT-4 leukemia): 1.51 µM
TGI (MOLT-4 leukemia): 14.4 µM
GI50 (CCRF-CEM leukemia): 3.02 µM
TGI (CCRF-CEM leukemia): 22.7 µM
GI50 (T-47D breast): 0.212 µM
TGI (T-47D breast): 2.92 µM
GI50 (OVCAR-5 ovarian): 1.49 µM
TGI (OVCAR-5 ovarian): 30.4 µM
GI50 (K-562 leukemia): 9.07 µM
TGI (K-562 leukemia): 43.4 µM
GI50 (SK-MEL-2 melanoma): 1.47 µM
TGI (SK-MEL-2 melanoma): 6.21 µM
